Legend:
Test in all cases: Post-emergence test experiment (Table 3, 1000 g/ha)
Assay type in all cases: in vivo
Settings in all cases: post-emergence spray, after 3 weeks, fresh weight inhibition
Leptochloa chinensis = test system: Leptochloa chinensis
Excerpt: (§1) The activity level standard of harmful plants destruction (i. e. growth inhibition rate) is as follows: • Level 5: the growth inhibition rate is greater than 85%; • Level 4: the growth inhibition rate is equal to or greater than 60% and less than 85%; • Level 3: the growth inhibition rate is equal to or greater than 40% and less than 60%; • Level 2: the growth inhibition rate is equal to or greater than 20% and less than 40%; • Level 1: the growth inhibition rate is equal to or greater than 5% and less than 20%; • Level 0: the growth inhibition rate is less than 5%;
(§2) The above described growth inhibition rate is fresh weight inhibition rate.
(§3) Post-emergence test experiment: Monocotyledonous and dicotyledonous weed seeds and main crop seeds (i. e. wheat, corn, rice, soybean, cotton, oilseed, millet and sorghum.) were put into a plastic pot loaded with soil. Then covered with 0.5-2 cm soil, the seeds were allowed to grow in good greenhouse environment. The test plants were treated at 2-3 leaf stage 2 weeks after sowing. The test compounds of the invention were dissolved with acetone respectively, then added with tween-80, and using 1.5 liters per hectare of an emulsible concentrate of methyl oleate as a synergist, and diluted by certain amount of water to certain concentration. The solution was sprayed to the plants with a sprayer. Then the plants were cultured for 3 weeks in the greenhouse, and the experiment result of weed controlling effect after 3 weeks was listed in tables 3-4.

Digitaria sanguinalis = test system: Digitaria sanguinalis
Excerpt: as §1, §2, §3

Setaria viridis = test system: Setaria viridis
Excerpt: as §1, §2, §3

Monochoria vaginalis = test system: Monochoria vaginalis
Excerpt: as §1, §2, §3

Abutilon theophrasti = test system: Abutilon theophrasti
Excerpt: as §1, §2, §3

Galium spurium = test system: Galium spurium
Excerpt: as §1, §2, §3

| SMILES | Activity level (growth inhibition rate) Leptochloa chinensis (Leptochloa chinensis) | Activity level (growth inhibition rate) Digitaria sanguinalis (Digitaria sanguinalis) | Activity level (growth inhibition rate) Setaria viridis (Setaria viridis) | Activity level (growth inhibition rate) Monochoria Vaginalis (Monochoria vaginalis) | Activity level (growth inhibition rate) Abutilon theophrasti (Abutilon theophrasti) | Activity level (growth inhibition rate) Galium spurium (Galium spurium) |
| --- | --- | --- | --- | --- | --- | --- |
| CSC(=O)C(C)Oc1nc(C(F)(F)F)c(Cl)c(N)c1Cl (stereo not drawn) [Compound 6] | 5 (Level 5: the growth inhibition rate is greater than 85%) | 5 (Level 5: the growth inhibition rate is greater than 85%) | 5 (Level 5: the growth inhibition rate is greater than 85%) | 5 (Level 5: the growth inhibition rate is greater than 85%) | 5 (Level 5: the growth inhibition rate is greater than 85%) | 5 (Level 5: the growth inhibition rate is greater than 85%) |
| CCc1c(OC(C)C(=O)SC)nc(C(F)(F)F)c(CC)c1N (stereo not drawn) [Compound 8] | 5 (Level 5: the growth inhibition rate is greater than 85%) | 5 (Level 5: the growth inhibition rate is greater than 85%) | 5 (Level 5: the growth inhibition rate is greater than 85%) | 5 (Level 5: the growth inhibition rate is greater than 85%) | 5 (Level 5: the growth inhibition rate is greater than 85%) | 5 (Level 5: the growth inhibition rate is greater than 85%) |
| CSC(=O)C(C)Oc1ncc(C(C)C)c(N)c1Cl (stereo not drawn) [Compound 9] | 5 (Level 5: the growth inhibition rate is greater than 85%) | 5 (Level 5: the growth inhibition rate is greater than 85%) | 5 (Level 5: the growth inhibition rate is greater than 85%) | 5 (Level 5: the growth inhibition rate is greater than 85%) | 5 (Level 5: the growth inhibition rate is greater than 85%) | 5 (Level 5: the growth inhibition rate is greater than 85%) |
| CSC(=O)C(C)Oc1nc(Cl)c(C2CC2)c(N)c1Cl (stereo not drawn) [Compound 10] | 5 (Level 5: the growth inhibition rate is greater than 85%) | 5 (Level 5: the growth inhibition rate is greater than 85%) | 5 (Level 5: the growth inhibition rate is greater than 85%) | 5 (Level 5: the growth inhibition rate is greater than 85%) | 5 (Level 5: the growth inhibition rate is greater than 85%) | 5 (Level 5: the growth inhibition rate is greater than 85%) |
| CSC(=O)C(C)Oc1nc(C(F)(F)F)c(F)c(N)c1C(C)C (stereo not drawn) [Compound 11] | 5 (Level 5: the growth inhibition rate is greater than 85%) | 5 (Level 5: the growth inhibition rate is greater than 85%) | 5 (Level 5: the growth inhibition rate is greater than 85%) | 5 (Level 5: the growth inhibition rate is greater than 85%) | 5 (Level 5: the growth inhibition rate is greater than 85%) | 5 (Level 5: the growth inhibition rate is greater than 85%) |
| CSC(=O)C(C)Oc1nc(F)c(Br)c(N)c1Br (stereo not drawn) [Compound 12] | 5 (Level 5: the growth inhibition rate is greater than 85%) | 5 (Level 5: the growth inhibition rate is greater than 85%) | 5 (Level 5: the growth inhibition rate is greater than 85%) | 5 (Level 5: the growth inhibition rate is greater than 85%) | 5 (Level 5: the growth inhibition rate is greater than 85%) | 5 (Level 5: the growth inhibition rate is greater than 85%) |
| CSC(=O)C(C)Oc1ncc(I)c(N)c1I (stereo not drawn) [Compound 13] | 5 (Level 5: the growth inhibition rate is greater than 85%) | 5 (Level 5: the growth inhibition rate is greater than 85%) | 5 (Level 5: the growth inhibition rate is greater than 85%) | 5 (Level 5: the growth inhibition rate is greater than 85%) | 5 (Level 5: the growth inhibition rate is greater than 85%) | 5 (Level 5: the growth inhibition rate is greater than 85%) |
| CCCc1c(F)nc(OC(C)C(=O)SC)c(C2CC2)c1N (stereo not drawn) [Compound 14] | 5 (Level 5: the growth inhibition rate is greater than 85%) | 5 (Level 5: the growth inhibition rate is greater than 85%) | 5 (Level 5: the growth inhibition rate is greater than 85%) | 5 (Level 5: the growth inhibition rate is greater than 85%) | 5 (Level 5: the growth inhibition rate is greater than 85%) | 5 (Level 5: the growth inhibition rate is greater than 85%) |
| CSC(=O)C(C)Oc1nc(F)c(C(F)(F)F)c(N)c1Cl (stereo not drawn) [Compound 15] | 5 (Level 5: the growth inhibition rate is greater than 85%) | 5 (Level 5: the growth inhibition rate is greater than 85%) | 5 (Level 5: the growth inhibition rate is greater than 85%) | 5 (Level 5: the growth inhibition rate is greater than 85%) | 5 (Level 5: the growth inhibition rate is greater than 85%) | 5 (Level 5: the growth inhibition rate is greater than 85%) |
| CCSC(=O)C(C)Oc1ncc(Cl)c(N)c1C(F)(F)F (stereo not drawn) [Compound 16] | 5 (Level 5: the growth inhibition rate is greater than 85%) | 5 (Level 5: the growth inhibition rate is greater than 85%) | 5 (Level 5: the growth inhibition rate is greater than 85%) | 5 (Level 5: the growth inhibition rate is greater than 85%) | 5 (Level 5: the growth inhibition rate is greater than 85%) | 5 (Level 5: the growth inhibition rate is greater than 85%) |
| CSC(=O)C(C)Oc1nc(I)c(Cl)c(N)c1Cl (stereo not drawn) [Compound 17] | 5 (Level 5: the growth inhibition rate is greater than 85%) | 5 (Level 5: the growth inhibition rate is greater than 85%) | 5 (Level 5: the growth inhibition rate is greater than 85%) | 5 (Level 5: the growth inhibition rate is greater than 85%) | 5 (Level 5: the growth inhibition rate is greater than 85%) | 5 (Level 5: the growth inhibition rate is greater than 85%) |

Reference: US12391648B2, “Pyridyloxy thioester derivative and preparation method therefor, herbicidal composition, and application” (Qingdao Kingagroot Chemical Compound Co., Ltd., priority 2018, dated 2025)
